From patent publication US20140350029A1 (DAINIPPON SUMITOMO PHARMA CO., LTD., priority 2011, published 2014)

What was measured:
[1] = system: patients with bipolar I depression; assay: Lurasidone adjunctive to lithium or divalproex for bipolar I depression, 6-week study, efficacy; format: in vivo, human; settings: lurasidone 20-120 mg/day adjunctive to lithium or divalproex, 6 weeks
Experimental: Changes from DB baseline (DB BL) in MADRS total score and secondary efficacy outcomes were analyzed using either mixed model for repeated measures (MMRM) or analysis of covariance, last observation carried forward (ANCOVA-LOCF), or logistic regression.
Therapeutic blood levels of Li or VPA had to be maintained for ≧28 days prior to randomization.
The total duration of treatment was 6 weeks.
A mixed model for repeated measures (MMRM) was utilized using the ITT population. The results are depicted in FIG. 16. The MMRM model included treatment, visit, pooled center, stratification variable (lithium or divalproex), baseline MADRS total score, and the treatment-by-visit interactions. An unstructured covariance matrix was used for the within-subject correlation. Missing observations were not imputed for this analysis.
Efficacy was also evaluated by measuring the change from baseline in CGI-BP-S score (depression) and the change from baseline in SDS total score. The results are depicted in FIGS. 17 and 18. CGI-BP-S was analyzed using the MMRM method described above, and SDS was analyzed using an analysis of covariance (ANCOVA) model with treatment, visit, pooled center, stratification variable (lithium or divalproex) and the baseline value of SDS. The ITT population was used for the analyses.

[2] = target: 5-HT2A receptor (Homo sapiens, UniProt P28223); settings: background statement; cited from earlier work
[3] = Metabolic effects, 1-year lurasidone therapy; format: in vivo, human; settings: 40-120 mg/day, 1-year study, patients with schizophrenia
Experimental: Changes in weight, total cholesterol, triglycerides, fasting glucose, and prolactin were measured and compared to baseline levels.

[4] = system: patients with bipolar I depression; assay: Lurasidone monotherapy for bipolar I depression, 6-week study, efficacy; format: in vivo, human; settings: for MADRS effect size vs PBO / MADRS score reduction (change from baseline, MMRM) / reduction in CGI-BP-S depression scores (MMRM): week 6
Experimental: Changes from DB baseline (DB-BL) to week 6 in MADRS and CGI-bipolar severity (CGI-BP-S) depression scores, respectively, were analyzed using mixed model for repeated measures (MMRM). Additional secondary outcome measures, e.g., Sheehan Disability Scale (SDS), were analyzed using analysis of covariance, last observation carried forward (ANCOVA-LOCF), or logistic regression.

[5] = target: 5-HT7 receptor (Homo sapiens, UniProt P34969); settings: background statement; cited from earlier work
[6] = target: T1, Dopamine D4 receptor (Homo sapiens, UniProt P21917); assay: In vitro receptor binding, dopamine D4; settings: cloned cells expressing human receptors; read-out: Binding Affinities (Ki; nM) Dopamine D4
T1 sequence (P21917 1-419): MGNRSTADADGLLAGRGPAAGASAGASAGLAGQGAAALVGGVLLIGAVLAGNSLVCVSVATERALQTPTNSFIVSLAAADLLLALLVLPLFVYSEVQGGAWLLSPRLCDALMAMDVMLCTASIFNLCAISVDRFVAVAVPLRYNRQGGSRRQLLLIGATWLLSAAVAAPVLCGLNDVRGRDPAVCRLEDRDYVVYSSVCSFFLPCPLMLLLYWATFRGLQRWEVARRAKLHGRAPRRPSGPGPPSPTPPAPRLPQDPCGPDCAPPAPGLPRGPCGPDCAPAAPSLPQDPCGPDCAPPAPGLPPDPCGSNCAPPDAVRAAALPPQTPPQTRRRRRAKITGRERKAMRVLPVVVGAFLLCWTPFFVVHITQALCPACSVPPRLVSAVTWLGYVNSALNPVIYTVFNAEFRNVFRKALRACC
Experimental: Functional assays were carried out to analyze the binding affinity and effect on receptor function for dopamine D1-D4 receptor subtypes, serotonin 5-HT1A, 5-HT2A, 5-HT2C, 5-HT6, 5-HT7, norepinephrine α1, α2A, α2C, histamine H1 receptors, and muscarinic M1 receptors.

[7] = system: patients with schizophrenia; assay: PANSS and BPRS scores, 1-year lurasidone therapy; format: in vivo, human; settings: 40-120 mg/day, over a 1-year period

Sequence of 5-HT7 receptor (P34969 whole entry): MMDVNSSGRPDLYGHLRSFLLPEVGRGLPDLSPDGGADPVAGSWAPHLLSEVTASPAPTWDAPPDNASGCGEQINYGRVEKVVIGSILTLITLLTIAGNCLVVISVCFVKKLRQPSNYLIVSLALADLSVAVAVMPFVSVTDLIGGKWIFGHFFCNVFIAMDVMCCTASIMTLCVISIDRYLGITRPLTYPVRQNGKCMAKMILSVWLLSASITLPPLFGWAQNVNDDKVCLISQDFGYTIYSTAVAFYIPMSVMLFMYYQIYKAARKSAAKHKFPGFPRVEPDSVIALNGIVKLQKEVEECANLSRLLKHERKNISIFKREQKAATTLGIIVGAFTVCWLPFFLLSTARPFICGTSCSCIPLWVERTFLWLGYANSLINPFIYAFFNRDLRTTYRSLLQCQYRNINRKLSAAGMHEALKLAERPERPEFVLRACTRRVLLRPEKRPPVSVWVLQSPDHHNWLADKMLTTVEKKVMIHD
Sequence of 5-HT2A receptor (P28223 whole entry): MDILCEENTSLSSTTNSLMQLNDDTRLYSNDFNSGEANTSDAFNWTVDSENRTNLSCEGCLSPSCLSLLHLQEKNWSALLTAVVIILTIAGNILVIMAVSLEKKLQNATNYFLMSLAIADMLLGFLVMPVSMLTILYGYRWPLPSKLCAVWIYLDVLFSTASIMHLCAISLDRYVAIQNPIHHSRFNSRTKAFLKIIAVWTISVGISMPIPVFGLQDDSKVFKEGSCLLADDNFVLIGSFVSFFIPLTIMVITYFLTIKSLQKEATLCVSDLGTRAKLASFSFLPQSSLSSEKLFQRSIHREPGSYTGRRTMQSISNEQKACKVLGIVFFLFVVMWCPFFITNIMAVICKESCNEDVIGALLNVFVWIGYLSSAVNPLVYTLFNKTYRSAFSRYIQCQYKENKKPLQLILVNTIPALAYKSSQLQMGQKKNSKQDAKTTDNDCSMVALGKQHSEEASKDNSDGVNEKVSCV

SMILES: O=C1[C@@H]2[C@H]3CC[C@H](C3)[C@@H]2C(=O)N1C[C@@H]1CCCC[C@H]1CN1CCN(c2nsc3ccccc23)CC1 [Lurasidone]
- depressive symptoms compared to placebo [1]: significantly reduced depressive symptoms
- self-rated measures of social, family, and occupational function as well as quality of life [1]: significantly improved
- reported affinity for 5-HT2A receptor [2]: high affinity
- changes in mean weight, lipids, and prolactin from baseline [3]: no adverse changes
- Sheehan Disability Scale (SDS) vs PBO ([4]; both LUR20-60 and LUR80-120 groups, LOCF): significant improvement over PBO
- Responder rates (reduction in MADRS total score ≧50%) ([4]; lurasidone 20 to 60 mg/day): 53%
- MADRS effect size vs PBO ([4]; lurasidone 20 to 60 mg/day): 0.51
- MADRS score reduction (change from baseline, MMRM) ([4]; lurasidone 20 to 60 mg/day): −15.4
- reduction in CGI-BP-S depression scores (MMRM) ([4]; lurasidone 20 to 60 mg/day): −1.8
- Responder rates (reduction in MADRS total score ≧50%) ([4]; lurasidone 80 to 120 mg/day): 51%
- MADRS effect size vs PBO ([4]; lurasidone 80 to 120 mg/day): 0.51
- MADRS score reduction (change from baseline, MMRM) ([4]; lurasidone 80 to 120 mg/day): −15.4
- reduction in CGI-BP-S depression scores (MMRM) ([4]; lurasidone 80 to 120 mg/day): −1.7
- depressive symptoms compared to placebo ([4]; monotherapy, flexibly dosed at 20 to 60 mg/day or 80 to 120 mg/day): significantly reduced depressive symptoms
- reported affinity for 5-HT7 receptor [5]: high affinity
- Ki [6]: 29.7 nM
- total PANSS and Brief Psychiatric Rating Scale (BPRS) scores [7]: gradual and sustained improvement
